Values after ≈ are worked out from the molar mass of the structure shown. Like-named read-outs stand apart in the source and are kept apart here.
Key:
[1] = Solubility of pomalidomide in various solvents; type: physicochemical; conditions: ambient temperature
Experimental: Pomalidomide Polymorph Preparations: A weighed sample of pomalidomide (about 100 mg) was treated with 2 mL of a test solvent. The solvents used were either reagent or HPLC grade. The resulting mixture was agitated for at least 24 hours at 25°C. When all of the solids were dissolved by visual inspection, the estimated solubilities were calculated. The solubility was estimated from these experiments based on the total volume of solvent used to give a solution. The actual solubility may be greater than those calculated due to the use of a large amount of solvent or to a slow rate of dissolution. […] A known volume of filtrate was evaporated to dryness and the weight of the residue was measured. Equilibration and evaporation experiments were carried out by adding an excess of pomalidomide to 4 mL of a test solvent. The resulting mixture was agitated for at least 24 hours at 25°C and 50°C separately. Upon reaching equilibrium, the saturated solution was removed and allowed to evaporate slowly in an open vial under nitrogen at 25°C and 50°C respectively. The slurry resulting from the equilibration was filtered and dried in the air. Crystallizations using cooling methods were performed. The solid was dissolved in a solvent at an elevated temperature, approximately 80°C and allowed to cool to room temperature. […] Solids were isolated by decantation and allowed to dry in the air. Precipitation studies were carried out by solvent/anti-solvent combinations. The solid was dissolved in a solvent in which pomalidomide solubility was high, and then a selected solvent in which pomalidomide was highly insoluble (anti-solvent) was added to the solution. A precipitate formed immediately in some solvent/anti-solvent systems. […] The precipitate was then isolated by decantation and allowed to dry in the air. All of the samples generated as described in the polymorph preparation study were analyzed by XRPD. X PD was conducted on a Thermo ARL X'TRA X-ray powder diffractometer using Cu Kcc radiation at 1.54 A. The instrument was equipped with a fine focus X-ray tube. The voltage and amperage of X-ray generator were set at 45 kV and 40 mA, respectively. The divergence slices were set at 4 mm and 2 mm and the measuring slices were set at 0.5 mm and 0.2 mm. Diffracted radiation was detected by peitier-cooled Si(Li) solid state detector. A theta-two theta continuous scan at 2.40°/min (0.5 sec/0.02c step) from 1.5° 20 to 40° 2.0 was used. A sintered alumina standard was used to check the peak position. DSC analyses were performed on a TA instrument Q1000. Indium was used as calibration standards. Approximately 2-5 mg of sample was placed into a DSC pan and the weight was accurately recorded. The sample was heated under nitrogen at a rate of 10°C/min, up to a final temperature of 350°C. Melting points were reported as extrapolated onset temperature. TG analyses were performed on a TA instrument Q500. Calcium oxalate was used for performance check. Approximately 10-25 mg of sample was placed on a pan, accurately weighed and loaded into the TG furnace. The sample was heated under nitrogen at a rate of 10°C/min, up to a final temperature of 350°C. Morphology and particle size analysis of the samples were carried out on an Olympus microscope. The instrument was calibrated with USP standards. Hygroscopicity was determined on a Surface Measurement Systems DVS. Typically a sample size of 10-50 mg was loaded into the DVS instrument sample pan and the sample was analyzed on a DVS automated sorption analyzer at 25°C. The relative humidity was increased in 10% increments from 0% to 95% RH. The relative humidity was then decreased in a similar mariner to accomplish a full adsosption/desorption cycle. […]

[2] = Approximate solubility of pomalidomide at 50°C in 96 solvent compositions (LC); type: physicochemical; conditions: binary solvent composition (main solvent and co-solvent), 50 °C, organic solvent or mixture, thermodynamic from solid
Experimental: Pomalidomide Solid Form Preparations: Preparation of solid form of pomalidomide was conducted by equilibrating pomalidomide in 96 solvent compositions at 50°C and subjected to four conditions: slurry, evaporation, cooling, and precipitation. […] Solvents were then added, as binary gradients consisting of main solvent and co-solvent, to give a total of 150 µl, in each of the 96 vials (see Table 6 for the exact composition of each vial). […] For each of the evaporation, precipitation, and cooling experiments, approximately 8 mg of a solid sample of pomalidomide (e.g., Form A) was delivered to each position of the plate. Solvents were added to the master plate, as binary gradients consisting of main solvent and co-solvent, to give a total volume of 800 µT in each of the 96 vials (see Table 7 for the exact composition of each vial). The master plate, containing pomalidomide and solvents, was then equilibrated by stirring for 2 hours at 50°C. Upon completion of the equilibration cycle, the supernatant was aspirated into a four-tipped needle assembly and transferred to a sealed parallel filtration assembly. The mixtures were forced through the filtration assembly using positive pressure and the filtrates were collected in an array of glass vials. The filtered solutions were subsequently aspirated into the four-tipped assembly and aliquots were dispensed to an array of glass vials for subsequent LC analysis to determine approximate concentrations of pomalidomide in each solvent composition at the beginning of the experiments (Table 8). Both the four-tipped needle assembly and filtration assembly were maintained at the equilibration temperature of 50°C throughout the entire transfer process.
The results correspond to the solvent systems described in Table 7, equilibrated at 50°C for 2 hours. […] The approximate concentrations were determined by LC.

Nc1cccc2c1C(=O)N(C1CCC(=O)NC1=O)C2=O (centres unmarked) [Pomalidomide, 4-amino-2-(2,6-dioxopiperidine-3-yl)isoindoline-1,3-dione]
solubility ([1]; Methyl t-butyl ether): 1030 µg/mL | solubility ([1]; acetone, 25 °C, organic solvent or mixture, thermodynamic from solid, Acetone, read-out: Solubility): 1990 µg/mL | solubility ([1]; acetonitrile, 25 °C, organic solvent or mixture, thermodynamic from solid, Acetonitrile, read-out: Solubility): 1270 µg/mL | solubility ([1]; ethanol/water (1:1), 25 °C, aqueous with cosolvent or surfactant or cyclodextrin, thermodynamic from solid, Ethanol/Water (1:1), read-out: Solubility): 540 µg/mL | solubility ([1]; methyl ethyl ketone, 25 °C, organic solvent or mixture, thermodynamic from solid, Methyl ethyl ketone, read-out: Solubility): 1260 µg/mL | solubility ([1]; methyl t-butyl ether, 25 °C, organic solvent or mixture, thermodynamic from solid, Methyl t-butyl ether, read-out: Solubility): < 1000 µg/mL | solubility ([1]; methylene chloride, 25 °C, organic solvent or mixture, thermodynamic from solid, Methylene chloride, read-out: Solubility): 1450 µg/mL | solubility ([1]; tetrahydrofuran, 25 °C, organic solvent or mixture, thermodynamic from solid, Tetrahydrofuran, read-out: Solubility): 5260 µg/mL | solubility at 2 h ([2]; solvent system A4 of Table 7, read-out: Approximate Measured Solubility): 1440 µg/mL (≈ 5.27 mM) | solubility at 2 h ([2]; solvent system A5 of Table 7, read-out: Approximate Measured Solubility): 800 µg/mL (≈ 2.93 mM) | solubility at 2 h ([2]; solvent system A6 of Table 7, read-out: Approximate Measured Solubility): 280 µg/mL (≈ 1.02 mM) | solubility at 2 h ([2]; solvent system A7 of Table 7, read-out: Approximate Measured Solubility): 6980 µg/mL (≈ 25.5 mM) | solubility at 2 h ([2]; solvent system A8 of Table 7, read-out: Approximate Measured Solubility): 7940 µg/mL (≈ 29.1 mM) | solubility at 2 h ([2]; solvent system A9 of Table 7, read-out: Approximate Measured Solubility): 4410 µg/mL (≈ 16.1 mM) | solubility at 2 h ([2]; solvent system B1 of Table 7, read-out: Approximate Measured Solubility): 230 µg/mL (≈ 0.842 mM) | solubility at 2 h ([2]; solvent system B2 of Table 7, read-out: Approximate Measured Solubility): 790 µg/mL (≈ 2.89 mM) | solubility at 2 h ([2]; solvent system B3 of Table 7, read-out: Approximate Measured Solubility): 1030 µg/mL (≈ 3.77 mM) | solubility at 2 h ([2]; solvent system B4 of Table 7, read-out: Approximate Measured Solubility): 220 µg/mL (≈ 0.805 mM) | solubility at 2 h ([2]; solvent system B5 of Table 7, read-out: Approximate Measured Solubility): 360 µg/mL (≈ 1.32 mM) | solubility at 2 h ([2]; solvent system B6 of Table 7, read-out: Approximate Measured Solubility): 150 µg/mL (≈ 0.549 mM) | solubility at 2 h ([2]; solvent system B7 of Table 7, read-out: Approximate Measured Solubility): 3160 µg/mL (≈ 11.6 mM) | solubility at 2 h ([2]; solvent system B8 of Table 7, read-out: Approximate Measured Solubility): 1720 µg/mL (≈ 6.29 mM) | solubility at 2 h ([2]; solvent system B9 of Table 7, read-out: Approximate Measured Solubility): 920 µg/mL (≈ 3.37 mM) | solubility at 2 h ([2]; solvent system B10 of Table 7, read-out: Approximate Measured Solubility): 480 µg/mL (≈ 1.76 mM) | solubility at 2 h ([2]; solvent system B11 of Table 7, read-out: Approximate Measured Solubility): 180 µg/mL (≈ 0.659 mM) | solubility at 2 h ([2]; solvent system C1 of Table 7, read-out: Approximate Measured Solubility): 620 µg/mL (≈ 2.27 mM) | solubility at 2 h ([2]; solvent system C2 of Table 7, read-out: Approximate Measured Solubility): 1410 µg/mL (≈ 5.16 mM) | solubility at 2 h ([2]; solvent system C3 of Table 7, read-out: Approximate Measured Solubility): 1670 µg/mL (≈ 6.11 mM) | solubility at 2 h ([2]; solvent system C4 of Table 7, read-out: Approximate Measured Solubility): 480 µg/mL (≈ 1.76 mM) | solubility at 2 h ([2]; solvent system C5 of Table 7, read-out: Approximate Measured Solubility): 470 µg/mL (≈ 1.72 mM) | solubility at 2 h ([2]; solvent system C6 of Table 7, read-out: Approximate Measured Solubility): 260 µg/mL (≈ 0.952 mM) | solubility at 2 h ([2]; solvent system C7 of Table 7, read-out: Approximate Measured Solubility): 3710 µg/mL (≈ 13.6 mM) | solubility at 2 h ([2]; solvent system C8 of Table 7, read-out: Approximate Measured Solubility): 2970 µg/mL (≈ 10.9 mM) | solubility at 2 h ([2]; solvent system C9 of Table 7, read-out: Approximate Measured Solubility): 1840 µg/mL (≈ 6.73 mM) | solubility at 2 h ([2]; solvent system C10 of Table 7, read-out: Approximate Measured Solubility): 1090 µg/mL (≈ 3.99 mM) | solubility at 2 h ([2]; solvent system C11 of Table 7, read-out: Approximate Measured Solubility): 490 µg/mL (≈ 1.79 mM) | solubility at 2 h ([2]; solvent system C12 of Table 7, read-out: Approximate Measured Solubility): 340 µg/mL (≈ 1.24 mM) | solubility at 2 h ([2]; solvent system D1 of Table 7, read-out: Approximate Measured Solubility): 1530 µg/mL (≈ 5.6 mM) | solubility at 2 h ([2]; solvent system D2 of Table 7, read-out: Approximate Measured Solubility): 670 µg/mL (≈ 2.45 mM) | solubility at 2 h ([2]; solvent system D3 of Table 7, read-out: Approximate Measured Solubility): 3460 µg/mL (≈ 12.7 mM) | solubility at 2 h ([2]; solvent system D4 of Table 7, read-out: Approximate Measured Solubility): 2500 µg/mL (≈ 9.15 mM) | solubility at 2 h ([2]; solvent system D5 of Table 7, read-out: Approximate Measured Solubility): 1940 µg/mL (≈ 7.1 mM) | solubility at 2 h ([2]; solvent system D6 of Table 7, read-out: Approximate Measured Solubility): 490 µg/mL (≈ 1.79 mM) | solubility at 2 h ([2]; solvent system D7 of Table 7, read-out: Approximate Measured Solubility): 3700 µg/mL (≈ 13.5 mM) | solubility at 2 h ([2]; solvent system D8 of Table 7, read-out: Approximate Measured Solubility): 2310 µg/mL (≈ 8.45 mM) | solubility at 2 h ([2]; solvent system D10 of Table 7, read-out: Approximate Measured Solubility): 560 µg/mL (≈ 2.05 mM) | solubility at 2 h ([2]; solvent system D11 of Table 7, read-out: Approximate Measured Solubility): 1160 µg/mL (≈ 4.25 mM)

Reference: patent EP2815749A1, “Solid form of 4-amino-2-(2,6-dioxopiperidine-3-yl)isoindoline-1,3-dione having specified X-ray diffraction pattern” (IP Gesellschaft für Management mbH, priority 2013, dated 2014)
